From US20080275036A1, “Prevention and treatment of cardiac conditions” (APT Pharmaceuticals, Inc., priority 2007, published 2008)

Key:
[1] = cited from earlier work
[2] = system: isolated guinea pig myocytes; assay: Calcium transients in isolated guinea pig myocytes; format: cell-based
Method: Calcium transients were measured during activation in isolated guinea pig myocytes. […] This increase in calcium transient without an action potential increase indicates an effect on calcium cycling proteins.

[3] = system: isolated, perfused guinea pig heart; assay: Perfusion of doxorubicin and dexrazoxane in the isolated, perfused guinea pig heart (Langendorff); conditions: for % change in MAP duration / % change in QTc / Cardiac rate / Cor flow / LV dp/dt max / LV dpdt (relax) / LV peak systolic pressure / LVEDP / MAP Duration / QTcF: 30 min of perfusion
Method: Perfusion studies of doxorubicin and dexrazoxane in the isolated, perfused guinea pig heart were performed similarly as above. The following parameters were recorded continuously: electrocardiogram (ECG), monophasic action potentials (MAP), perfusion pressure, left ventricular pressure and coronary flow. These effects could be related to some modifications of cardiac electrophysiology (changes in PR, QRS, QT and RR intervals, proarrhythmic effects, Torsade de pointes . . . ), of coronary resistance and/or of cardiac contraction or inotropism (contractility or relaxation troubles).
Stock solutions (10^−2M, 3×10^−2M) in H20 for each drug were prepared each day of the experiment and a dilution (1/1000) done in the perfusion buffer in order to get the appropriate concentrations:
The buffer used in the experiment was KREBS-[…] buffer (Sigma K-3753) to which was added sodium bicarbonate (Sigma S5761) 25 mM and calcium chloride dihydrate (Sigma C8106) 1.8 mM.
The ECG (2 electrodes: on the apex and closed to the right auricular) and the MAP (electrode on the epicardium) were recorded. PR, QRS, QT and RR were measured and QTc (Fridericia; QTc=QT/(RR) ⅓ in ms) was calculated.
The coronary flow (mL/min) is indicated by the perfusion pump. In this model, the perfusion pressure was constant.
Diastolic pressure (mmHg), systolic pressure (mmHg), differential pressure (syst-diast) (mmHg), mean pressure (mmHg), dP/dt min (mmHg/sec) dP/dt max (mmHg/sec) and cardiac frequency (beat per minute: BPM) were measured. A modification of the inotropism can be a problem of cardiac contractility (if modified systolic pressure and dP/dt max) or relaxation (if modified diastolic pressure and dP/dt min). From the left ventricular pressure, the following were calculated: heart rate (frequency of cardiac contractions), dP/dt min and dP/dt max. An acquisition unit MP150WSW with Acknowledge software (Biopac, USA) was used to continuously record all the signals (perfusion pressure, coronary flow, left ventricular pressure, ECG and MAP) through a PC computer. In each group (n=4 hearts), increasing concentrations of compound were infused according to the following design:
For each group, the data are expressed as mean ±S.E.M, % of variation compared to D0 and delta variation from D0. PR, QRS, QT and RR are measured on the same period but on a signal which results from 5 cycles.
On all the curves, the mean value is measured on 30 seconds in the last minute of perfusion for the following parameters: […]

[4] = system: isolated guinea pig myocytes; assay: Action potential properties in isolated guinea pig myocytes; format: cell-based
[5] = doxorubicin perfusion, 30 minute time point

## CC(CN1CC(=O)NC(=O)C1)N1CC(=O)NC(=O)C1 (racemic) [razoxane]
[1]; 0.1 N HCl
  solubility in 0.1 N HCl: sparingly soluble
[1]
  solubility in non-polar, organic solvents: practically insoluble
[1]; ethanol and methanol
  solubility in polar solvents: slightly soluble

## COc1cccc2c1C(=O)c1c(O)c3c(c(O)c1C2=O)C[C@@](O)(C(=O)CO)C[C@@H]3O[C@H]1C[C@H](N)[C@H](O)[C@H](C)O1 [Doxorubicin]
[2]; 30 μM
  Ca^2+ transients, Peak amplitude (ΔF/F0): 3.0 ± 0.7 ΔF/F0
[2]; 100 μM
  Ca^2+ transients, Peak amplitude (ΔF/F0): 3.1 ± 0.5 ΔF/F0
[2]; 300 μM
  Ca^2+ transients, Peak amplitude (ΔF/F0): 1.6 ± 0.3 ΔF/F0
[2]; over the tested concentrations
  calcium transients (effect in words): dose related decrease
[3]; DOX 3 * 10^−5 mM
  % change in MAP duration: 13.3%
  % change in QTc: 11.9 % change
  Cardiac rate: 184 Beats/min
  Cor flow: 14.4 mL/min
  LV dp/dt max: 887 mmHg sec^−1
  LV dpdt (relax): −922 mmHg sec^−1
  LV peak systolic pressure: 93 mmHg
  LVEDP: 14 mmHg
  MAP Duration: 162 ms
  QTcF: 272 ms
[3]; DOX 10^−5 mM
  % change in MAP duration: 2.2%
  % change in QTc: 1.6 % change
  Cardiac rate: 217 Beats/min
  Cor flow: 13.4 mL/min
  LV dp/dt max: 1277 mmHg sec^−1
  LV dpdt (relax): −1173 mmHg sec^−1
  LV peak systolic pressure: 97 mmHg
  LVEDP: 7 mmHg
  MAP Duration: 142 ms
  QTcF: 247 ms
[3]; [5]
  LVEDP (effect in words): marked increase
  QTcF (effect in words): increased
[4]; 30 μM
  APD50: 553 ± 29 ms
  APD90: 626 ± 28 ms
  Action potentials, Peak amplitude: 120 ± 3 mV
  Action potentials, Resting potential: −70 ± 3 mV
[4]; 100 μM
  APD50: 646 ± 26 ms
  Action potentials, Peak amplitude: 119 ± 2 mV
  Action potentials, Resting potential: −68 ± 3 mV
[4]; 300 μM
  APD50: 536 ± 48 ms
  APD90: 611 ± 48 ms
  Action potentials, Peak amplitude: 122 ± 4 mV
  Action potentials, Resting potential: −69 ± 2 mV
[4]; over the tested concentrations
  action potential duration (effect in words): profound prolongation
